Experimental data: ChEMBL document CHEMBL1159107, “Novel semisynthetic spin-labeled derivatives of podophyllotoxin with cytotoxic and antioxidative activity” (Bioorg Med Chem Lett, 2010)

What was measured:
HL-60 = experiment: Cytotoxicity against human HL60 cells after 48 hrs; type: functional, cell-based; conditions: HL-60, 48 h
Liver = experiment: Antioxidant activity in Sprague-Dawley rat liver assessed as inhibition of malonaldehyde; type: functional, tissue-based
A549 = experiment: Cytotoxicity against human A549 cells after 48 hrs; type: functional, cell-based; conditions: A549, 48 h
Heart = experiment: Antioxidant activity in Sprague-Dawley rat heart assessed as inhibition of malonaldehyde; type: functional, tissue-based
RPMI-8226 = experiment: Cytotoxicity against human RPMI8226 cells after 48 hrs; type: functional, cell-based; conditions: RPMI-8226, 48 h
Kidney = experiment: Antioxidant activity in Sprague-Dawley rat kidney assessed as inhibition of malonaldehyde; type: functional, tissue-based

SMILES | IC50 (HL-60) | IC50 (Liver) | IC50 (A549) | IC50 (Heart) | IC50 (RPMI-8226) | IC50 (Kidney)
COc1cc([C@@H]2c3cc4c(cc3[C@@H](O[C@@H]3O[C@@H]5CO[C@@H](C)O[C@H]5[C@H](O)[C@H]3O)[C@H]3COC(=O)[C@H]23)OCO4)cc(OC)c1O [ETOPOSIDE] | 420 nM | 43900 nM | 290 nM | 40700 nM | 140 nM | 23800 nM
COc1cc([C@@H]2c3cc4c(cc3[C@@H](NC(=O)[C@H](CCSC)NC(=O)OC3CC(C)(C)N([O])C(C)(C)C3)[C@H]3COC(=O)[C@H]23)OCO4)cc(OC)c1O | 670 nM | 6850 nM | 420 nM | 5890 nM | 480 nM | 7550 nM
COc1cc([C@@H]2c3cc4c(cc3[C@@H](NC(=O)[C@H](Cc3ccccc3)NC(=O)OC3CC(C)(C)N([O])C(C)(C)C3)[C@H]3COC(=O)[C@H]23)OCO4)cc(OC)c1O | 210 nM | 6550 nM | 210 nM | 7390 nM | 90 nM | 9630 nM
COc1cc([C@@H]2c3cc4c(cc3[C@@H](NC(=O)CNC(=O)OC3CC(C)(C)N([O])C(C)(C)C3)[C@H]3COC(=O)[C@H]23)OCO4)cc(OC)c1O | 320 nM | 7470 nM | 210 nM | 7190 nM | 330 nM | 8900 nM
COc1cc([C@@H]2c3cc4c(cc3[C@@H](NC(=O)[C@H](CC(C)C)NC(=O)OC3CC(C)(C)N([O])C(C)(C)C3)[C@H]3COC(=O)[C@H]23)OCO4)cc(OC)c1O | 160 nM | 8850 nM | 190 nM |  | 89 nM | 8470 nM
COc1cc([C@@H]2c3cc4c(cc3[C@@H](NC(=O)[C@@H](NC(=O)OC3CC(C)(C)N([O])C(C)(C)C3)C(C)C)[C@H]3COC(=O)[C@H]23)OCO4)cc(OC)c1O | 240 nM | 8690 nM | 150 nM | 8040 nM | 61 nM | 8880 nM
COc1cc([C@@H]2c3cc4c(cc3[C@@H](NC(=O)[C@H](C)NC(=O)OC3CC(C)(C)N([O])C(C)(C)C3)[C@H]3COC(=O)[C@H]23)OCO4)cc(OC)c1O | 220 nM | 7640 nM | 120 nM | 6390 nM | 260 nM | 7680 nM
COc1cc([C@@H]2c3cc4c(cc3[C@@H](NC(=O)[C@@H](NC(=O)OC3CC(C)(C)N([O])C(C)(C)C3)C(C)O)[C@H]3COC(=O)[C@H]23)OCO4)cc(OC)c1O (some centres not stated) | 210 nM | 7120 nM | 210 nM | 8790 nM | 78 nM | 7450 nM
